Data reported in patent US6921766B1, “Blood vessel lipid deposition-preventive agent comprising chymase-inhibitor” (Daiichi Suntory Pharma Co., Ltd., priority 1999, dated 2005).
“Also recorded” adds a separate entry of the source.

Columns and labels:
Human heart chymase = molecular target: T1, Human heart chymase (Homo sapiens, UniProt P23946); test: Inhibitory activity of test compounds to human chymase (Suc-Ala-Ala-Pro-Phe-MCA substrate); type: biochemical; conditions: purified human heart chymase, preincubated 10 min at 30° C., pH 7.5
T1 construct: Human heart chymase was purified according to the method of Urata et al; from tissue; host or cells: human heart
T1 sequence (P23946 22-247): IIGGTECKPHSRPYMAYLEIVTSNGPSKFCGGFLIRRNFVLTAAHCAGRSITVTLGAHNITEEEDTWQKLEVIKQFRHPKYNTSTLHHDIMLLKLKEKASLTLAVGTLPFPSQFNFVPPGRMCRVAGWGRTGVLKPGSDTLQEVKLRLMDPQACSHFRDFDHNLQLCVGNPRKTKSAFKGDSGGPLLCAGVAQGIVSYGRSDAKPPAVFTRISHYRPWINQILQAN
Description: Human heart chymase was purified according to the method of Urata et al. (J. Biol. Chem. 265: 22348, 1990). The inhibitory activity of the compound of the present invention was determined as follows. Purified enzyme was diluted with 0.1 M Tris-HCl buffer (pH 7.5) containing 1 M sodium chloride and 0.01% Triton X-100 to appropriate concentrations. Suc-Ala-Ala-Pro-Phe-MCA (Peptide Institute Inc.) was dissolved in 10 mM dimethyl sulfoxide (hereinafter referred to as DMSO) and diluted 20-fold with 0.1 M Tris-HCl buffer (pH 7.5) containing 1 M sodium chloride and 0.01% Triton X-100 to an appropriate concentration to prepare substrate solution.
5 μl of the test sample in DMSO was added to 75 μl of the enzyme solution and preincubated at 30° C. for 10 minutes. Then, 20 μl of the substrate solution was added to the test sample-enzyme mixture, and incubated at 30° C. Ten minutes later, 50 μl of 30% acetic acid was added to stop the enzymatic reaction, and the amount of AMC formed was determined using a fluorophotometer. At the same time, 5 μl of DMSO in stead of the test sample was added and reacted simultaneously as a control. The inhibitory activity to human chymase was calculated based on the value of the control, and then the inhibition percentage and the 50% inhibition concentration (IC50) were determined.

[1] = human, pH 7.2
Description: 2 μl of 1 mM test sample in DMSO was added to 198 μl of 50% of human plasma solution in a 50 mM sodium phosphate buffer (pH 7.2) and incubated at 30° C. At 0, 5, and 15 minutes, 800 μl of acetonitrile was added to the test sample-plasma mixture, which was mixed and deproteinized. The supernatant obtained by centrifugation (12,000 rpm, one minute) was diluted with the same volume of distilled water, and the intact compound in the solution was determined by HPLC analysis.
The half life (t1/2) of the test sample in the plasma solution was calculated from the recovery at each time point using an exponential regression analysis.

[2] = tested on: lipid deposition in the aorta; test: Aortic lipid deposition model in hamster induced by high-cholesterol diet; type: in vivo, Golden Syrian hamsters; conditions: 100 mg/kg/day orally for 12 weeks
Description: An aorta lipid deposition model was induced by a high-cholesterol diet. A high-cholesterol diet was prepared by adding 0.5% cholesterol and 10% coconut oil (KBT Oriental Co.) to a standard rodent feed containing 5.1% fat and 0.07% cholesterol (KBT oriental Co.). 8-week-old male Golden Syrian hamsters (KBT Oriental Co.) (100-130 g) were given the high-cholesterol diet for 12 weeks to induce lipid deposition in the aorta. A group to which a standard rodent feed was given for 12 weeks was used as the control.
An aortic lipid deposition model was generated as described in Example 3 and used as the high-cholesterol diet group (n=6). A group that received the standard rodent diet for 12 weeks was used as the control group (n=6). […]
The effect on lipid deposition by the chymase no inhibitor was evaluated by harvesting the aorta on week 12 after the start of the high-cholesterol diet and performing a histopathological analysis. […]
Then, the sections were washed with 60% isopropanol and distilled water, and counterstained with hematoxylin for 2 minutes. After washing with 1/4 saturated LiCO3, lipid deposition was evaluated by microscopic observation. Also, the area of the lipid deposition region (the region stained to an orange color with Oil red O) was quantitated on the histological pictures by NIH Image software ver. […]

SMILES	IC50 (Human heart chymase) [nM]	t1/2 (plasma half life) [1] [h]	lipid deposition area in the aortic cusp region ([2]; FIG. 1, monosodium salt, 100 mg/kg/day)	lipid deposition in the aorta (microscopic examination of the aortic cusp) ([2]; Oil red O staining)
O=C(O)C1Oc2ccc(S(=O)(=O)n3c(=O)[nH]c4cc(Cl)ccc4c3=O)cc2NC1=O (racemic) [Compound 29, (±)-6-[(7-chloro-2,4(1H,3H)-quinazolinedione-3-yl)sulfonyl]-3-oxo-1,4-benzoxadine-2-carboxylic acid]	1700	–	–	–
CC(C(=O)O)C(=O)Nc1cccc(S(=O)(=O)n2c(=O)[nH]c3cc(Cl)ccc3c2=O)c1 (centres unmarked) [Compound 13, 2-{3-[(7-chloro-2,4(1H,3H)-quinazolinedione-3-yl)sulfonyl]phenylaminocarbonyl}propionic acid]	300	1.62	–	–
Nc1cc(S(=O)(=O)n2c(=O)[nH]c3cc(Cl)ccc3c2=O)ccc1C(=O)[O-].[Na+] [Compound 18, 4-[(7-chloro-2,4(1H,3H)-quinazolinedione-3-yl)sulfonyl]anthranilic acid monosodium salt]	–	–	decreased; also recorded: significantly suppressed	completely disappeared
